Results on one molecule are retold here after patent publication US20090286876A1, “NEUROPROTECTIVE BENZOATE AND BENZAMIDE COMPOUNDS” (Samaritan Pharmaceuticals, Inc., priority 2003, published 2009).

Data set [1] concerns PC12 cells. Put plainly: Neuroprotection against Aβ1-42 cytotoxicity, MTT assay (NADPH diaphorase activity). Format: cell-based, rat. For orientation: Tetrazolium dyes change colour on reduction, which living cells bring about.
In data set [2] the target is T1, sigma-1 receptor (Homo sapiens, UniProt Q99720).
T1 construct: sigma-1 receptor expressed in Jurkat cells; endogenous in cells; host or cells: Jurkat cells
Put plainly: Displacement of [3H](+)pentazocine from sigma-1 receptor expressed in Jurkat cells. Format: binding. On the technique in general: In a radioligand displacement assay an active substance lowers the binding of a labelled ligand.

The target of data set [3] is σ2-receptor (Homo sapiens, UniProt Q5BJF2). In words: σ2-receptor binding.
Data set [4] relates to PC12 cells. In words: Glutamate-induced excitotoxicity, MTT assay. The note with it: compound 0.3-30 μM 24 h pre-incubation; glutamate 100 μM 24 h. The class given is cell-based, rat.
Data set [5] relates to HMG-CoA reductase mRNA. Put plainly: HMG-CoA reductase mRNA synthesis, real-time quantitative PCR. The class given is cell-based, rat.
The conditions of data set [6]: cited from earlier work.
Data set [7] relates to PC12 cells. In words: Reversal of Aβ1-42-induced ATP depletion (ATPLite-M assay). Particulars: for ATP decrease induced by Aβ1-42, Aβ1-42 control = 100% reduction: 24 h pre-incubation, 24 h. Background: ATP-based viability assays read luminescence as a measure of living cells.
Data set [8] relates to PC12 cells. In words: Aβ1-42-induced free radical production (2,7-DCF fluorescent probe). Particulars: compound 1-100 μM 24 h pre-incubation; Aβ1-42 0.1-10 μM 24 h.
[9] abbreviates: compound 1-100 μM, Aβ1-42 0.1-10 μM.

T1 sequence (Q99720 whole entry): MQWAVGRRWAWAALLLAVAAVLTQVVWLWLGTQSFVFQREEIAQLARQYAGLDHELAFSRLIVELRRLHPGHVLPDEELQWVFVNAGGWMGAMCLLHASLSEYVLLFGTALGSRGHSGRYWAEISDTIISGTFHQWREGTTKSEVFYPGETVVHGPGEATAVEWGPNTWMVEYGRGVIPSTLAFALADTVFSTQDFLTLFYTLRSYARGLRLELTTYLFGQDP
Chain of σ2-receptor (Q5BJF2 whole entry, species assumed): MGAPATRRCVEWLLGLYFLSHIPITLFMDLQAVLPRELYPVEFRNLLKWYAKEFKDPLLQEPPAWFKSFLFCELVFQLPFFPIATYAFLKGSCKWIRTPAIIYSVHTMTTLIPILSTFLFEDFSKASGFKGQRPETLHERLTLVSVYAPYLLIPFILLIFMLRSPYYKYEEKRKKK

`CCN(CC)CCOC(=O)c1ccc(N)cc1` [Procaine, 4-aminobenzoic acid 2-(diethylamino)ethyl ester]: the “reduction of the NADPH diaphorase inhibition induced by Aβ1-42” value in data set [1] (1 and 10 μM procaine) is recorded as “at least 30%”. In addition, the “protective effect against Aβ1-42 neurotoxicity (MTT), in words” value in data set [1] (setting [9]) is “important protective effect against 0.1 and 1 μM Aβ1-42 induced toxicity”. Moreover, in data set [2], the “Hill coefficient (nH)” value amounted to 1.0. For the same molecule, the IC50 is 4.3 µM in data set [2] and > 10 µM in data set [3]. For the same molecule, the “neuroprotective effect against glutamate-induced cell death (MTT), in words” value in data set [4] is “prevented the glutamate-induced neurotoxicity in a biphasic manner”. Also, the “basal level of HMG-CoA reductase mRNA, in words” value in data set [5] (control PC12 cells, no Aβ1-42) was “did not affect”. Also, in data set [5] (procaine 1 or 10 μM 18 h pre-incubation, Aβ1-42 1 μM 24 h), the “level of HMG-CoA reductase mRNA induced by Aβ1-42, in words” value is “decreased in a dose-dependent manner”. For the same molecule, the pKa in data set [6] is listed as 8.9. Also, the “ATP decrease induced by Aβ1-42, Aβ1-42 control = 100% reduction” value in data set [7] (compound 1 μM, Aβ1-42 0.1 μM) is reported as 64.0 ± 24.4 %; in data set [7] (compound 1 μM, Aβ1-42 1 μM), 67.8 ± 13.8 %; in data set [7] (compound 1 μM, Aβ1-42 10 μM) it was 86.8 ± 5.5%; in data set [7] (compound 10 μM, Aβ1-42 0.1 μM), 56.0 ± 16.4 %; in data set [7] (compound 10 μM, Aβ1-42 1 μM), 97.0 ± 45.5%; in data set [7] (compound 10 μM, Aβ1-42 10 μM) it was 89.8 ± 5.1%. Moreover, the “ATP decrease induced by Aβ1-42, Aβ1-42 control = 100% reduction” value in data set [7] (compound 100 μM, Aβ1-42 0.1 μM) is on record as 42.8 ± 16.9 %; in data set [7] (compound 100 μM, Aβ1-42 1 μM), 69.6 ± 12.1 %; in data set [7] (compound 100 μM, Aβ1-42 10 μM), 83.6 ± 20.6%. Besides, the “effect on Aβ1-42-induced ATP decrease, in words” value in data set [7] (setting [9]) is “protected against the 0.1 μM Aβ1-42-induced depletion of ATP concentrations in a dose-dependent manner”. Besides, in data set [8], the “effect on Aβ1-42-induced free radical production, in words” value is “exhibited a trend to reduce the Aβ1-42-induced free radical production”.

Usually IC50 stands for the concentration at which inhibition is half-maximal. A lower IC50 goes with higher potency. The pKa is the pH at which an ionisable group is half protonated.
